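Protocol summary: plate cells (96-well), add compound at 5 concentrations, incubate 48 h, interpolate endpoints linearly. The concentration for 50% growth inhibition is given as GI50.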 The source made the active and inactive calls. Cut-off read from the data, not from the text of the source: active = GI50 up to about 1.1 µM and inactive = higher.
How the values were obtained:
Test in all cases: NCI-60 cell line screen, 48 h
SF-268 = test system: SF-268
NCI-H226 = test system: NCI-H226
HCT-116 = test system: HCT-116
MDA-MB-231 = test system: MDA-MB-231
SNB-75 = test system: SNB-75
EKVX = test system: EKVX
HT-29 = test system: HT-29
MDA-MB-435 = test system: MDA-MB-435
NCI-H522 = test system: NCI-H522
DU-145 = test system: DU-145
A498 = test system: A498
IGROV-1 = test system: IGROV-1
786-0 = test system: 786-0
LOX IMVI = test system: LOX IMVI
HCT-15 = test system: HCT-15
KM12 = test system: KM12
OVCAR-5 = test system: OVCAR-5
MOLT-4 = test system: MOLT-4
Hs-578T = test system: Hs-578T
T47D = test system: T47D
PC-3 = test system: PC-3
ACHN = test system: ACHN
MCF7 = test system: MCF7
HOP-62 = test system: HOP-62
MDA-N = test system: MDA-N
CAKI-1 = test system: CAKI-1
Malme-3M = test system: Malme-3M
RPMI-8226 = test system: RPMI-8226
UACC-62 = test system: UACC-62
K562 = test system: K562
SK-MEL-2 = test system: SK-MEL-2
OVCAR-4 = test system: OVCAR-4
SF-539 = test system: SF-539
COLO 205 = test system: COLO 205
SNB-19 = test system: SNB-19
RXF 393 = test system: RXF 393
OVCAR-8 = test system: OVCAR-8
SK-MEL-5 = test system: SK-MEL-5
A549 = test system: A549
SK-MEL-28 = test system: SK-MEL-28
SN12C = test system: SN12C
SW-620 = test system: SW-620
SF-295 = test system: SF-295
HL-60 = test system: HL-60
UACC-257 = test system: UACC-257
NCI/ADR-RES = test system: NCI/ADR-RES
HCC 2998 = test system: HCC 2998
NCI-H460 = test system: NCI-H460
UO-31 = test system: UO-31
BT-549 = test system: BT-549
U-251 = test system: U-251
SR = test system: SR
HOP-92 = test system: HOP-92
SK-OV-3 = test system: SK-OV-3
OVCAR-3 = test system: OVCAR-3
TK-10 = test system: TK-10
M14 = test system: M14
CCRF-CEM = test system: CCRF-CEM
NCI-H23 = test system: NCI-H23

SMILES: Clc1ccc(Cc2nc3cc(Cl)c(Cl)cc3n2CC2CCCN3CCCCC23)cc1 (stereo not drawn)
- GI50 (SF-268): 8.17 µM (inactive)
- GI50 (NCI-H226): 17.3 µM (inactive)
- GI50 (HCT-116): 9.68 µM (inactive)
- GI50 (MDA-MB-231): 4.13 µM (inactive)
- GI50 (SNB-75): 7.76 µM (inactive)
- GI50 (EKVX): 10.3 µM (inactive)
- GI50 (HT-29): 3.33 µM (inactive)
- GI50 (MDA-MB-435): 13 µM (inactive)
- GI50 (NCI-H522): 12.2 µM (inactive)
- GI50 (DU-145): 12 µM (inactive)
- GI50 (A498): 14.4 µM (inactive)
- GI50 (IGROV-1): 8.87 µM (inactive)
- GI50 (786-0): 11 µM (inactive)
- GI50 (LOX IMVI): 5.6 µM (inactive)
- GI50 (HCT-15): 10.7 µM
- GI50 (KM12): 6.59 µM (inactive)
- GI50 (OVCAR-5): 12.8 µM (inactive)
- GI50 (MOLT-4): 4.22 µM (inactive)
- GI50 (Hs-578T): 9.79 µM (inactive)
- GI50 (T47D): 18.1 µM (inactive)
- GI50 (PC-3): 9.04 µM (inactive)
- GI50 (ACHN): 10.1 µM (inactive)
- GI50 (MCF7): 10.7 µM (inactive)
- GI50 (HOP-62): 18.5 µM (inactive)
- GI50 (MDA-N): 11.7 µM (inactive)
- GI50 (CAKI-1): 14.7 µM (inactive)
- GI50 (Malme-3M): 7.87 µM (inactive)
- GI50 (RPMI-8226): 24.5 µM (inactive)
- GI50 (UACC-62): 7.8 µM (inactive)
- GI50 (K562): 7.41 µM (inactive)
- GI50 (SK-MEL-2): 16 µM (inactive)
- GI50 (OVCAR-4): 16.7 µM (inactive)
- GI50 (SF-539): 10.4 µM (inactive)
- GI50 (COLO 205): 10.3 µM (inactive)
- GI50 (SNB-19): 13.9 µM (inactive)
- GI50 (RXF 393): 13.8 µM (inactive)
- GI50 (OVCAR-8): 12.8 µM (inactive)
- GI50 (SK-MEL-5): 11.3 µM (inactive)
- GI50 (A549): 13.2 µM (inactive)
- GI50 (SK-MEL-28): 6.93 µM (inactive)
- GI50 (SN12C): 12.3 µM (inactive)
- GI50 (SW-620): 13.6 µM (inactive)
- GI50 (SF-295): 13.4 µM (inactive)
- GI50 (HL-60): 5.55 µM (inactive)
- GI50 (UACC-257): 3.81 µM (inactive)
- GI50 (NCI/ADR-RES): 12.5 µM (inactive)
- GI50 (HCC 2998): 3.68 µM (inactive)
- GI50 (NCI-H460): 7.53 µM (inactive)
- GI50 (UO-31): 0.285 µM (active)
- GI50 (BT-549): 13.1 µM (inactive)
- GI50 (U-251): 8.11 µM (inactive)
- GI50 (SR): 3.35 µM (inactive)
- GI50 (HOP-92): 12.2 µM (inactive)
- GI50 (SK-OV-3): 16.9 µM (inactive)
- GI50 (OVCAR-3): 11 µM (inactive)
- GI50 (TK-10): 14.4 µM (inactive)
- GI50 (M14): 2.65 µM (inactive)

SMILES: CCCC1NC(=O)C(CC(C)C)NC(=O)c2cccc(n2)C(=O)NC(CC(C)C)C(=O)NC(CCC)C(=O)NC(C(=O)OC)CCCCNC1=O (stereo not drawn)
- GI50 (SF-268): 28.2 µM (inactive)
- GI50 (NCI-H226): 25.6 µM (inactive)
- GI50 (HCT-116): 34 µM (inactive)
- GI50 (MDA-MB-231): 18.7 µM (inactive)
- GI50 (SNB-75): 16.5 µM (inactive)
- GI50 (EKVX): 20.3 µM (inactive)
- GI50 (HT-29): 30.6 µM (inactive)
- GI50 (MDA-MB-435): 35.4 µM (inactive)
- GI50 (DU-145): > 100 µM (inactive)
- GI50 (A498): > 100 µM (inactive)
- GI50 (IGROV-1): 31.1 µM (inactive)
- GI50 (786-0): > 100 µM (inactive)
- GI50 (LOX IMVI): 19.2 µM (inactive)
- GI50 (CCRF-CEM): 15.6 µM (inactive)
- GI50 (HCT-15): > 100 µM
- GI50 (KM12): 27.3 µM (inactive)
- GI50 (OVCAR-5): > 100 µM (inactive)
- GI50 (MOLT-4): 18 µM (inactive)
- GI50 (Hs-578T): 71.1 µM (inactive)
- GI50 (T47D): 55 µM (inactive)
- GI50 (PC-3): 25.3 µM (inactive)
- GI50 (MCF7): 25.9 µM (inactive)
- GI50 (HOP-62): 81.3 µM (inactive)
- GI50 (MDA-N): 36.9 µM (inactive)
- GI50 (CAKI-1): > 100 µM (inactive)
- GI50 (NCI-H23): 47.9 µM (inactive)
- GI50 (Malme-3M): 21.7 µM (inactive)
- GI50 (RPMI-8226): 14.3 µM (inactive)
- GI50 (UACC-62): 21.2 µM (inactive)
- GI50 (K562): 24 µM (inactive)
- GI50 (SK-MEL-2): 55 µM (inactive)
- GI50 (OVCAR-4): 38.8 µM (inactive)
- GI50 (SF-539): 22 µM (inactive)
- GI50 (COLO 205): 40.6 µM (inactive)
- GI50 (SNB-19): 53.5 µM (inactive)
- GI50 (RXF 393): 31.8 µM (inactive)
- GI50 (OVCAR-8): 32.8 µM (inactive)
- GI50 (SK-MEL-5): > 100 µM (inactive)
- GI50 (A549): > 100 µM (inactive)
- GI50 (SK-MEL-28): 25.6 µM (inactive)
- GI50 (SN12C): 34.4 µM (inactive)
- GI50 (SW-620): 34.8 µM (inactive)
- GI50 (SF-295): 51.1 µM (inactive)
- GI50 (UACC-257): 54.5 µM (inactive)
- GI50 (NCI/ADR-RES): > 100 µM (inactive)
- GI50 (HCC 2998): 11.1 µM (inactive)
- GI50 (NCI-H460): > 100 µM (inactive)
- GI50 (UO-31): > 100 µM (inactive)
- GI50 (BT-549): 26.4 µM (inactive)
- GI50 (U-251): 32.4 µM (inactive)
- GI50 (SR): 29 µM (inactive)
- GI50 (HOP-92): 14.6 µM (inactive)
- GI50 (SK-OV-3): 27.2 µM (inactive)
- GI50 (OVCAR-3): 41.7 µM (inactive)
- GI50 (TK-10): 57.8 µM (inactive)
- GI50 (M14): 91 µM (inactive)

— ChEMBL document CHEMBL1201862, “PubChem BioAssay data set” (2004)
